Reference: PubChem BioAssay AID1949 (Southern Research Institute, 2009)
Values after ≈ are worked out from the molar mass of the structure shown. Records with an inconclusive call do not appear. Active and inactive are the calls of the source. How the calls were made is not given here.

These compounds were tested on M. tuberculosis H37Rv growth inhibition (assay: Mycobacterium tuberculosis H37Rv growth inhibition, cell based, confirmatory dose response (AID 1949);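 further: bacteria grown 7 days with compound before Alamar blue readout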).
`O=C(Oc1ccccc1)c1cccc2cccnc12` gave an IC50 of 0.99 mg/L (≈ 3.97 µM).
For `CCOC(=O)COc1ccc2c(=O)c(-c3ccccc3F)coc2c1C`, the IC50 was < 0.1 mg/L.
Compound `O=C(Nc1nnc(C2CCCCC2)s1)c1sc2ccccc2c1Cl` has an IC50 of 0.37 mg/L (≈ 0.979 µM).
With `COc1ccc(Cc2nn3c(-c4ccccc4)nnc3s2)cc1` the IC50 was 0.63 mg/L (≈ 1.95 µM).
In the case of `CSc1ncc(C(=O)Nc2cccc(C(F)(F)F)c2)cn1`, the IC50 is reported as < 0.1 mg/L.
`Cc1ccc(C(C)(C)C)c(OCCCn2ccnc2)c1` gave an IC50 of 3.87 mg/L (≈ 14.2 µM).
`O=C(CSc1nc2ccccc2c(=O)[nH]1)NCc1ccccc1` was tested, and the IC50 was 0.28 mg/L (≈ 0.86 µM).
Work on `Cc1cc(C)nc(/N=C(\N)Nc2cc(Cl)ccc2Oc2ccccc2)n1` yielded an IC50 of 2.21 mg/L (≈ 6.01 µM).
For `Cn1nnnc1Sc1ccc([N+](=O)[O-])c2ncccc12`, the IC50 was > 50 mg/L (inactive).
In the case of `Cc1ccc(-c2nnc(SCC(=O)Nc3ccc([N+](=O)[O-])cc3)o2)cc1`, the IC50 is reported as > 50 mg/L (inactive).
Compound `Cc1cc2ncn(Cc3ccccc3C)c2cc1C` has an IC50 of 11.1 mg/L (≈ 44.4 µM).
In the case of `O=C(c1cccc([N+](=O)[O-])c1)N1N=C(c2ccc(Br)cc2)CC1(O)C(F)(F)F` (centres undefined), the IC50 is reported as 2.13 mg/L (≈ 4.65 µM).
Compound `CCOc1ccc(NC(=S)Nc2ccc3nsnc3c2)cc1` has an IC50 of 0.52 mg/L (≈ 1.57 µM).
`Cc1ccc(OCC(=O)c2ccccc2)cc1C` was tested, and the IC50 was 4.92 mg/L (≈ 20.5 µM).
In the case of `O=C(Nc1ccc(-c2cc3ccccc3oc2=O)cc1)c1cc(-n2cnnc2)ccc1Cl`, the IC50 is reported as 6.92 mg/L (≈ 15.6 µM).
Work on `O=S(=O)(CCSc1nc2ccccc2s1)c1nc2ccccc2s1` yielded an IC50 of 7.23 mg/L (≈ 18.4 µM).
With `CC(C(=O)OCc1ccccc1Cl)n1cnc2scc(-c3ccc(Cl)cc3)c2c1=O` (centres undefined) the IC50 was > 50 mg/L (inactive).
With `O=C(Nc1ccc(Cl)c(C(F)(F)F)c1)c1csc2c1CCCC2` the IC50 was 2.66 mg/L (≈ 7.39 µM).
`Clc1ccc(OCCCCn2ccnc2)cc1Cl` was tested, and the IC50 was 2.01 mg/L (≈ 7.05 µM).
Compound `CCOC(=O)N1CCc2c(sc(NC(=O)c3ccc([N+](=O)[O-])o3)c2C(=O)Nc2ccc(OCC)cc2)C1` has an IC50 of 5.64 mg/L (≈ 10.7 µM).
Work on `CC(C)OC(=O)c1c2c(n3ccccc13)C(=O)c1ccccc1C2=O` yielded an IC50 of 11.4 mg/L (≈ 34.2 µM).
In the case of `O=C(NCc1cccs1)c1cc2n(n1)C(C(F)(F)F)CC(c1ccc3c(c1)OCO3)N2` (centres undefined), the IC50 is reported as 1.5 mg/L (≈ 3.33 µM).
Work on `CCOC(=O)COc1ccc(OCc2ccccc2)cc1` yielded an IC50 of 1.21 mg/L (≈ 4.23 µM).
In the case of `O=C(NCc1ccc(Cl)cc1)c1ccccc1-c1ccccc1`, the IC50 is reported as 13.2 mg/L (≈ 41.1 µM).
`CC(=O)Oc1cccc2ccc(/C=C/c3ccc(Cl)cc3)nc12` was tested, and the IC50 was < 0.1 mg/L.
With `CC1CCc2c(sc3nc4c5ccccc5c(N5CCN(CCO)CC5)nn4c(=O)c23)C1` (centres undefined) the IC50 was 4.86 mg/L (≈ 10.8 µM).
With `CN(C)CCCNc1nn2c(=O)c3c(-c4ccc(Cl)cc4)csc3nc2c2ccccc12` the IC50 was 35.1 mg/L (≈ 75.5 µM).
`CCOC(=O)COc1ccc2c(=O)c(-c3ccc(OC)cc3)c(C)oc2c1` gave an IC50 of 1.29 mg/L (≈ 3.5 µM).
Compound `O=C1C(=O)N(Cc2ccccc2Cl)c2ccc(Br)cc21` has an IC50 of 3.79 mg/L (≈ 10.8 µM).
For `CCOC(=O)c1c2c(n(C)c1CN(CC)CC)C(=O)C(=O)c1ccc(Br)cc1-2`, the IC50 was 0.17 mg/L (≈ 0.38 µM).
`O=C(COc1cccc2ccccc12)c1ccc(F)cc1` showed an IC50 of 2.82 mg/L (≈ 10.1 µM).
`COC(=O)COc1ccc(NC(=O)c2ccccc2C)cc1` was tested, and the IC50 was < 0.1 mg/L.
In the case of `Cc1cccc(OCC(O)CN2CCN(C(c3ccccc3)c3ccccc3)CC2)c1C` (centres undefined), the IC50 is reported as 2.94 mg/L (≈ 6.83 µM).
With `O=C(Nc1ccc(C(F)(F)F)cc1)C1COc2ccccc2O1` (centres undefined) the IC50 was 37.9 mg/L (≈ 117 µM).
With `Cc1ccc(C(=O)NC(=S)N(C)Cc2ccccc2)cc1` the IC50 was 2.53 mg/L (≈ 8.48 µM).
`Cc1cc(C)cc(NC(=O)COc2cccc(C=O)c2)c1` showed an IC50 of 3.3 mg/L (≈ 11.6 µM).
Work on `CC(C)C(=O)N1CCN(c2ccccc2NC(=O)c2ccc([N+](=O)[O-])o2)CC1` yielded an IC50 of 1.95 mg/L (≈ 5.05 µM).
`Cc1ccc(NC(=S)Nc2cc(C)[nH]n2)c(Cl)c1` gave an IC50 of 22.2 mg/L (≈ 79.2 µM).
`COCCNc1nc(-c2ccc(Cl)cc2)nc2ccccc12` was tested, and the IC50 was > 50 mg/L (inactive).
`O=C(/C=C/c1cc([N+](=O)[O-])ccc1O)c1ccc(Cl)cc1` was tested, and the IC50 was 1.24 mg/L (≈ 4.08 µM).
Work on `CCc1c(C)sc(NC(=S)N2CCN(CC)CC2)c1C(=O)OC` yielded an IC50 of 16.3 mg/L (≈ 45.8 µM).
Work on `Clc1ccccc1COc1ccc2ccccc2c1CNCc1cccnc1` yielded an IC50 of 8.75 mg/L (≈ 22.5 µM).
Work on `Cc1c(Cl)ccc(OCCCN2CCCC(C)C2)c1C` (centres undefined) yielded an IC50 of 3.16 mg/L (≈ 10.7 µM).
For `CCN1C(=O)c2cccc3cc([N+](=O)[O-])cc(c23)C1=O`, the IC50 was < 0.1 mg/L.
`COC(=O)CSc1nc(-c2ccccc2)c(-c2ccccc2)o1` gave an IC50 of 5.58 mg/L (≈ 17.1 µM).
`N#Cc1c(SCCN2CCCC2)nc2c(c1C(F)(F)F)CC(c1ccccc1)CC2` (centres undefined) was tested, and the IC50 was 47.4 mg/L (≈ 110 µM).
`CC(C)(C)c1ccc(OCC(=O)Nc2ccc3c(c2)OCCO3)c(Br)c1` showed an IC50 of 4.25 mg/L (≈ 10.1 µM).
Compound `COc1ccc(OCC(=O)Nc2cccc(-c3nc4ccccc4c(=O)o3)c2)cc1` has an IC50 of 37.1 mg/L (≈ 92.2 µM).
Work on `Cc1ccc2nc(-c3ccc(N/C(N)=N\c4nc(C)cc(C)n4)cc3)sc2c1` yielded an IC50 of 25.7 mg/L (≈ 66.2 µM).
`CC(CCc1ccccc1)NC(=O)c1ccc(Cl)cc1[N+](=O)[O-]` (centres undefined) gave an IC50 of 3.7 mg/L (≈ 11.1 µM).
In the case of `Cc1ccc(NC(=O)c2ccc(N3CCN(C)CC3)c([N+](=O)[O-])c2)cc1Cl`, the IC50 is reported as 2.22 mg/L (≈ 5.71 µM).
`Cc1cc(OCCCCn2ccnc2)ccc1C(C)C` gave an IC50 of 2.57 mg/L (≈ 9.43 µM).
For `CCCCc1ccc(N/C(N)=N\c2nc(C)cc(C)n2)cc1`, the IC50 was 23.3 mg/L (≈ 78.2 µM).
Work on `COc1ccc(Br)cc1C(=O)Nc1ccc(N2CCN(C(=O)C(C)C)CC2)c(Cl)c1` yielded an IC50 of 5.08 mg/L (≈ 10.3 µM).
`CC1=Nc2ccccc2N=C(N)C1c1ccc(Cl)cc1` (centres undefined) showed an IC50 of 15 mg/L (≈ 52.8 µM).
`O=C(CSc1ccc(Cl)cc1)Nc1ccc(Cl)c(C(F)(F)F)c1` was tested, and the IC50 was 3.18 mg/L (≈ 8.36 µM).
Work on `COc1cccc(CN2CCN(C(=O)Nc3ccc(Cl)c(Cl)c3)CC2)c1` yielded an IC50 of 5.13 mg/L (≈ 13 µM).
For `NC(CC(=O)c1ccc(Cl)cc1Cl)C(Cl)(Cl)Cl` (centres undefined), the IC50 was 0.27 mg/L (≈ 0.805 µM).
Work on `COc1ccc(-c2csc(-c3cccnc3)n2)cc1C` yielded an IC50 of 12.9 mg/L (≈ 45.9 µM).
